Publication PMC7726444 (Frontiers in Pharmacology, 2020)

Assays:
WT human PAH = target: T1, WT human PAH (Homo sapiens, UniProt P00439); experiment: PAH enzymatic activity assay (selectivity); format: biochemical; details: up to a concentration of 100 µM
T1 construct: made in house
T1 sequence (P00439 1-452): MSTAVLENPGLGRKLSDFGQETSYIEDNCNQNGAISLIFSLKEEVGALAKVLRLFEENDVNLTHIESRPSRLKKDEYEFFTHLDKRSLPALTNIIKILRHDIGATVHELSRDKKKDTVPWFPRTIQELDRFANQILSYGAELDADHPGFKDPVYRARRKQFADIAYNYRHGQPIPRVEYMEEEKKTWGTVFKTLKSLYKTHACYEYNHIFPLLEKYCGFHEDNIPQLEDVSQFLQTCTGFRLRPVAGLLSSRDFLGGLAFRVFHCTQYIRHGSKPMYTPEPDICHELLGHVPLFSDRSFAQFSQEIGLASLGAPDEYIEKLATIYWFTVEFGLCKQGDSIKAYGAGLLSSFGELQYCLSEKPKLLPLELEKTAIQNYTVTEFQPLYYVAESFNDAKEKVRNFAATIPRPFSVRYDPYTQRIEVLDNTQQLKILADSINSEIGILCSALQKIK
Method: Full-length WT TPH1 and TPH2 were expressed as N-terminal six-His-maltose-binding protein fusion proteins in pETM-41 and were cleaved and purified as described previously ([McKinney et al., 2004]; [Winge et al., 2007]). Human WT PAH and TH were expressed and isolated as described previously ([Flydal et al., 2012]; [Bezem et al., 2016]).
Purified WT human TPH2, PAH, and TH were used for this purpose, and the activity assays for each enzyme was performed as described previously ([Haavik and Flatmark, 1980]; [Winge et al., 2007]; [Aubi et al., 2015]; [Bezem et al., 2016]).

[1] = target: T2, doubly truncated TPH1 (ΔNH102-ΔCOOH402) (Homo sapiens, UniProt P17752); experiment: Tryptophan hydroxylase enzymatic activity assay (HPLC quantification of 5-OH-Trp), doubly truncated TPH1; format: biochemical
T2 construct: The ΔNH102-ΔCOOH402 human TPH1 gene was cloned; six-His (C); made in house

[2] = tested on: 5-HT content in brain and serum; experiment: LC-MS/MS determination of 5-HT levels in brain and serum; format: in vivo, mouse; details: 100 mg/kg i.p. once daily for 4 days
Excerpt: Male CD-1 mice (Janvier Labs, Le Genest-St-Isle, France), 3 months of age were used. The animals in the different treatment groups were matched for age. The University of Barcelona’s Committee on Animal Use and Care approved the protocol. Animals were housed and tested in compliance with the guidelines described in the Guide for the Care and Use of Laboratory Animals ([Clark et al., 1997]) and following the European Union directives (2010/63/EU), FELASA and ARRIVE guidelines. All efforts were made to minimize animal suffering and the number of animals used. All animals were housed in groups of five in standard cages with ad libitum access to food and water and maintained under a 12-h dark/light cycle (starting at 7:30 AM), 22°C temperature, and 66% humidity. […]
Quantitative analysis of 5-HT was carried out by liquid chromatography coupled with tandem mass spectrometry (LC-MS/MS) using an Agilent 1,290 Infinity UHPLC chromatograph (Santa Clara, CA) coupled to a 6500 QTRAP mass spectrometer (ABSciex, Framingham, MA) equipped with an Ion Drive Turbo V ion source operating in positive ion mode. […] Sample-to-sample differences in recovery, liquid handling, and ionization efficiency were compensated for by normalizing to the amount of 5-HT-d4 detected in the samples. […]

T2 sequence (P17752 102-402, stated change not applied): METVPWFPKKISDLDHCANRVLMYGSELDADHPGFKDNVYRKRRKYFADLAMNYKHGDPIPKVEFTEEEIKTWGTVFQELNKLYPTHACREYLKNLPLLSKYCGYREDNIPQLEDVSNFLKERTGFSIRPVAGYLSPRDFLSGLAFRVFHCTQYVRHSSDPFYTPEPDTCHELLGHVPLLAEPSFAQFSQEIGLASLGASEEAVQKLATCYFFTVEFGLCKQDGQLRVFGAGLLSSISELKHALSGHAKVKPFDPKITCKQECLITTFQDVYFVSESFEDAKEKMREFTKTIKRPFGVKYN

- inhibition of PAH (WT human PAH): no inhibition
- reduction of TPH1 activity ([1]; 100 µM compound, preliminary activity assay): more than 50%
- IC50 ([1]; doubly truncated TPH1, 20 µM L-Trp, 200 µM BH4, 37°C, mean (95% confidence interval), three experiments in duplicate): 3.09 µM
SMILES: COc1ccc2[nH]c([S+]([O-])Cc3ncc(C)c(OC)c3C)nc2c1 (centres unmarked) [Omeprazole]
- 5-HT content in serum vs vehicle ([2]; serum): significantly higher 5-HT content
- 5-HT content in brain vs vehicle ([2]; whole-brain tissue): significantly higher 5-HT content
